Measurements published in ChEMBL document CHEMBL3352542, “Synthesis, biological evaluation and molecular modeling study of 2-(1,3,4-thiadiazolyl-thio and 4-methyl-thiazolyl-thio)-quinazolin-4-ones as a new class of DHFR inhibitors” (Bioorg Med Chem Lett, 2014).
Active and inactive are the calls of the source. The rule behind the calls is not given here.

Assays:
Dihydrofolate reductase = biological target: T1, Dihydrofolate reductase (Bos taurus, UniProt P00376); assay: Inhibition of bovine liver DHFR
T1 sequence (P00376 whole entry): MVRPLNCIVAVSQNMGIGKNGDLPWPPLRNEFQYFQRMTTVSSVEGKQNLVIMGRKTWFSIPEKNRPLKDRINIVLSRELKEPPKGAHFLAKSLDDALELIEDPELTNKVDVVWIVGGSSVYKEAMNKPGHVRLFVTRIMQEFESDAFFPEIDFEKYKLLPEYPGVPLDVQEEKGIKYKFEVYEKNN

Staphylococcus aureus = assay: Antimicrobial activity against Staphylococcus aureus assessed as inhibition zone at 200 ug/disk after 24 hrs by disc-diffusion method; format: functional; details: read-out: IZ
Bacillus subtilis = assay: Antimicrobial activity against Bacillus subtilis assessed as inhibition zone at 200 ug/disk after 24 hrs by disc-diffusion method; format: functional; details: read-out: IZ
Escherichia coli = assay: Antimicrobial activity against Escherichia coli assessed as inhibition zone at 200 ug/disk after 24 hrs by disc-diffusion method; format: functional; details: read-out: IZ
Pseudomonas aeruginosa = assay: Antimicrobial activity against Pseudomonas aeruginosa assessed as inhibition zone at 200 ug/disk after 24 hrs by disc-diffusion method; format: functional; details: read-out: IZ
Candida albicans = assay: Antimicrobial activity against Candida albicans assessed as inhibition zone at 200 ug/disk after 24 hrs by disc-diffusion method; format: functional; details: read-out: IZ
CCRF-CEM = assay: Growth inhibition of human CCRF-CEM cells at 10 uM after 48 hrs; format: functional
HL-60(TB) = assay: Growth inhibition of human HL-60(TB) cells at 10 uM after 48 hrs; format: functional
K562 = assay: Growth inhibition of human K562 cells at 10 uM after 48 hrs; format: functional
MOLT-4 = assay: Growth inhibition of human MOLT4 cells at 10 uM after 48 hrs; format: functional
RPMI-8226 = assay: Growth inhibition of human RPMI8226 cells at 10 uM after 48 hrs; format: functional
SR = assay: Growth inhibition of human SR cells at 10 uM after 48 hrs; format: functional
A549 = assay: Growth inhibition of human A549 cells at 10 uM after 48 hrs; format: functional
HOP-92 = assay: Growth inhibition of human HOP92 cells at 10 uM after 48 hrs; format: functional
NCI-H226 = assay: Growth inhibition of human NCI-H226 cells at 10 uM after 48 hrs; format: functional
NCI-H23 = assay: Growth inhibition of human NCI-H23 cells at 10 uM after 48 hrs; format: functional
NCI-H460 = assay: Growth inhibition of human NCI-H460 cells at 10 uM after 48 hrs; format: functional
NCI-H522 = assay: Growth inhibition of human NCI-H522 cells at 10 uM after 48 hrs; format: functional
COLO 205 = assay: Growth inhibition of human COLO205 cells at 10 uM after 48 hrs; format: functional
HCC 2998 = assay: Growth inhibition of human HCC2998 cells at 10 uM after 48 hrs; format: functional
HCT-116 = assay: Growth inhibition of human HCT116 cells at 10 uM after 48 hrs; format: functional
HCT-15 = assay: Growth inhibition of human HCT15 cells at 10 uM after 48 hrs; format: functional
HT-29 = assay: Growth inhibition of human HT-29 cells at 10 uM after 48 hrs; format: functional
KM12 = assay: Growth inhibition of human KM12 cells at 10 uM after 48 hrs; format: functional
SW-620 = assay: Growth inhibition of human SW620 cells at 10 uM after 48 hrs; format: functional
SF-268 = assay: Growth inhibition of human SF268 cells at 10 uM after 48 hrs; format: functional
SF-295 = assay: Growth inhibition of human SF295 cells at 10 uM after 48 hrs; format: functional
SF-539 = assay: Growth inhibition of human SF539 cells at 10 uM after 48 hrs; format: functional
SNB-19 = assay: Growth inhibition of human SNB19 cells at 10 uM after 48 hrs; format: functional
SNB-75 = assay: Growth inhibition of human SNB75 cells at 10 uM after 48 hrs; format: functional
U-251 = assay: Growth inhibition of human U251 cells at 10 uM after 48 hrs; format: functional
LOX IMVI = assay: Growth inhibition of human LOXIMVI cells at 10 uM after 48 hrs; format: functional
Malme-3M = assay: Growth inhibition of human MALME-3M cells at 10 uM after 48 hrs; format: functional
M14 = assay: Growth inhibition of human M14 cells at 10 uM after 48 hrs; format: functional
MDA-MB-435 = assay: Growth inhibition of human MDA-MB-435 cells at 10 uM after 48 hrs; format: functional
SK-MEL-5 = assay: Growth inhibition of human SK-MEL-5 cells at 10 uM after 48 hrs; format: functional
UACC-257 = assay: Growth inhibition of human UACC257 cells at 10 uM after 48 hrs; format: functional
UACC-62 = assay: Growth inhibition of human UACC62 cells at 10 uM after 48 hrs; format: functional
OVCAR-3 = assay: Growth inhibition of human OVCAR3 cells at 10 uM after 48 hrs; format: functional
OVCAR-4 = assay: Growth inhibition of human OVCAR4 cells at 10 uM after 48 hrs; format: functional
OVCAR-5 = assay: Growth inhibition of human OVCAR5 cells at 10 uM after 48 hrs; format: functional
OVCAR-8 = assay: Growth inhibition of human OVCAR8 cells at 10 uM after 48 hrs; format: functional
NCI/ADR-RES = assay: Growth inhibition of human NCI-ADR-RES cells at 10 uM after 48 hrs; format: functional
786-0 = assay: Growth inhibition of human 786-0 cells at 10 uM after 48 hrs; format: functional
A498 = assay: Growth inhibition of human A498 cells at 10 uM after 48 hrs; format: functional
ACHN = assay: Growth inhibition of human ACHN cells at 10 uM after 48 hrs; format: functional
CAKI-1 = assay: Growth inhibition of human CAKI-1 cells at 10 uM after 48 hrs; format: functional
RXF 393 = assay: Growth inhibition of human RXF393 cells at 10 uM after 48 hrs; format: functional
SN12C = assay: Growth inhibition of human SN12C cells at 10 uM after 48 hrs; format: functional
TK-10 = assay: Growth inhibition of human TK10 cells at 10 uM after 48 hrs; format: functional
UO-31 = assay: Growth inhibition of human UO31 cells at 10 uM after 48 hrs; format: functional
PC-3 = assay: Growth inhibition of human PC3 cells at 10 uM after 48 hrs; format: functional
MCF7 = assay: Growth inhibition of human MCF7 cells at 10 uM after 48 hrs; format: functional
MDA-MB-231 = assay: Growth inhibition of human MDA-MB-231 cells at 10 uM after 48 hrs; format: functional
Hs-578T = assay: Growth inhibition of human Hs 578T cells at 10 uM after 48 hrs; format: functional
BT-549 = assay: Growth inhibition of human BT549 cells at 10 uM after 48 hrs; format: functional
T47D = assay: Growth inhibition of human T47D cells at 10 uM after 48 hrs; format: functional
MDA-MB-468 = assay: Growth inhibition of human MDA-MB-468 cells at 10 uM after 48 hrs; format: functional

## COc1cc2nc(Sc3sc(N)nc3C)n(-c3ccc(Cl)cc3)c(=O)c2cc1OC
Dihydrofolate reductase
  IC50: 2000 nM
Staphylococcus aureus
  zone of inhibition at 200 µg/disc: 18 mm
Bacillus subtilis
  zone of inhibition at 200 µg/disc: 14 mm
Escherichia coli
  zone of inhibition at 200 µg/disc: 8 mm
Pseudomonas aeruginosa
  zone of inhibition at 200 µg/disc: 8 mm
Candida albicans
  zone of inhibition at 200 µg/disc: 8 mm
CCRF-CEM
  growth inhibition (GI): inactive
HL-60(TB)
  growth inhibition (GI): inactive
K562
  growth inhibition (GI): inactive
MOLT-4
  growth inhibition (GI): inactive
RPMI-8226
  growth inhibition (GI): inactive
SR
  growth inhibition (GI): inactive
A549
  growth inhibition (GI): inactive
HOP-92
  growth inhibition (GI): inactive
NCI-H226
  growth inhibition (GI): inactive
NCI-H23
  growth inhibition (GI): inactive
NCI-H460
  growth inhibition (GI): inactive
NCI-H522
  growth inhibition (GI): inactive
COLO 205
  growth inhibition (GI): inactive
HCC 2998
  growth inhibition (GI): inactive
HCT-116
  growth inhibition (GI): inactive
HCT-15
  growth inhibition (GI): inactive
HT-29
  growth inhibition (GI): inactive
KM12
  growth inhibition (GI): inactive
SW-620
  growth inhibition (GI): inactive
SF-268
  growth inhibition (GI): inactive
SF-295
  growth inhibition (GI): inactive
SF-539
  growth inhibition (GI): inactive
SNB-19
  growth inhibition (GI): inactive
SNB-75
  growth inhibition (GI): inactive
U-251
  growth inhibition (GI): inactive
LOX IMVI
  growth inhibition (GI): inactive
Malme-3M
  growth inhibition (GI): inactive
M14
  growth inhibition (GI): inactive
MDA-MB-435
  growth inhibition (GI): inactive
SK-MEL-5
  growth inhibition (GI): inactive
UACC-257
  growth inhibition (GI): inactive
UACC-62
  growth inhibition (GI): inactive
OVCAR-3
  growth inhibition (GI): inactive
OVCAR-4
  growth inhibition (GI): inactive
OVCAR-5
  growth inhibition (GI): inactive
OVCAR-8
  growth inhibition (GI): inactive
NCI/ADR-RES
  growth inhibition (GI): inactive
786-0
  growth inhibition (GI): inactive
A498
  growth inhibition (GI): inactive
ACHN
  growth inhibition (GI): inactive
CAKI-1
  growth inhibition (GI): inactive
RXF 393
  growth inhibition (GI): inactive
SN12C
  growth inhibition (GI): inactive
TK-10
  growth inhibition (GI): inactive
UO-31
  growth inhibition (GI): inactive
PC-3
  growth inhibition (GI): inactive
MCF7
  growth inhibition (GI): inactive
MDA-MB-231
  growth inhibition (GI): inactive
Hs-578T
  growth inhibition (GI): inactive
BT-549
  growth inhibition (GI): inactive
T47D
  growth inhibition (GI): inactive
MDA-MB-468
  growth inhibition (GI): inactive
